The source made the active and inactive calls. The rule behind the calls is not given here.
Assays:
[1] = Neuroprotective activity against veratradine-induced neuronal cell death in bovine chromaffin cells assessed as cell viability at 10 uM after 24 hrs by LDH release assay relative to control; assay type: functional; settings: Bos taurus, read-out: Activity
SH-SY5Y [2] = assay: Neuroprotective activity against potassium ion-induced cytotoxicity in human SH-SY5Y cells assessed as cell viability at 3 uM pretreated for 24 hrs measured 24 hrs post potassium ion challenge by MTT assay relative to control; assay type: functional; settings: read-out: Activity
Hippocampus = assay: Neuroprotective activity against glutamate-induced neuronal cell death in Sprague-Dawley rat brain hippocampal slices assessed as cell viability at 10 uM incubated 4 hrs by MTT assay relative to control; assay type: functional; settings: read-out: Activity
SH-SY5Y [3] = assay: Neuroprotective activity against rotenone/oligomycin A-induced oxidative stress in human SH-SY5Y cells assessed as cell viability at 0.3 uM pretreated for 24 hrs measured 24 hrs post rotenone/oligomycin challenge by MTT assay relative to control; assay type: functional; settings: read-out: Activity
[4] = biological target: T1, Mitochondrial sodium/calcium exchanger protein (Homo sapiens, UniProt Q6J4K2); assay: Inhibition of mitochondrial sodium/calcium exchanger (unknown origin)
T1 sequence (Q6J4K2 whole entry): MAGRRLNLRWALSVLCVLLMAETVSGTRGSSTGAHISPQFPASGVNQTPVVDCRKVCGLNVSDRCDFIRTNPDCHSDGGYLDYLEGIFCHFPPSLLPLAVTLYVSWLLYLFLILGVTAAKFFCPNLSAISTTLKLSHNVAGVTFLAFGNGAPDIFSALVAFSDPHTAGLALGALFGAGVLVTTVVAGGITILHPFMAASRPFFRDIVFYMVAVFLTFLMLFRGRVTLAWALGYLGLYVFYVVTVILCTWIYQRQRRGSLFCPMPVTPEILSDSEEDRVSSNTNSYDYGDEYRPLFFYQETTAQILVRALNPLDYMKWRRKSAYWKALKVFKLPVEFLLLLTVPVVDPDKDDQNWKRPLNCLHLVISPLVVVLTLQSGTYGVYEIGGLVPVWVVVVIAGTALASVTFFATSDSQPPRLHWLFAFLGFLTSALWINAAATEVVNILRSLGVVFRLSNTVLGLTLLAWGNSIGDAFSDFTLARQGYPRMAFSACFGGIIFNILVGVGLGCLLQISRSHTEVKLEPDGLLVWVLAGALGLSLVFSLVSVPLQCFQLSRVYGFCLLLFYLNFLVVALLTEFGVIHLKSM

[5] = biological target: T2, Mitochondrial sodium/calcium exchanger protein (Homo sapiens) (UniProt Q6J4K2); assay: Inhibition of mitochondrial sodium/calcium exchanger in human HeLa cells assessed as reduction in decay rate of histamine-induced mitochondrial calcium at 3 uM after 36 to 48 hrs by aequorin staining based bioluminescence assay; assay type: cell-based
T2 sequence (whole entry): T1 sequence (Q6J4K2 whole entry)

Bos taurus [6] = organism: Bos taurus; assay: Inhibition of voltage gated calcium channel in bovine chromaffin cells assessed as blockade of depolarizing pulse-induced whole cell inward calcium currents by perforated patch clamp method; assay type: cell-based
[7] = biological target: T2, Mitochondrial sodium/calcium exchanger protein (Homo sapiens); assay: Inhibition of mitochondrial sodium/calcium exchanger in human HeLa cells assessed as increase in AUC of histamine-induced mitochondrial calcium at 3 uM after 36 to 48 hrs by aequorin staining based bioluminescence assay; assay type: cell-based
[8] = biological target: T2, Mitochondrial sodium/calcium exchanger protein (Homo sapiens); assay: Inhibition of mitochondrial sodium/calcium exchanger in human HeLa cells assessed as increase in maximal peak of histamine-induced mitochondrial calcium at 3 uM after 36 to 48 hrs by aequorin staining based bioluminescence assay; assay type: cell-based
HeLa = assay: Cytotoxicity against human HeLa cells assessed as reduction in cell viability at 0.3 to 30 uM after 24 hrs by MTT assay; assay type: cell-based
SH-SY5Y [9] = assay: Cytotoxicity in human SH-SY5Y cells assessed as ROS generation after 24 hrs by H2DCFDA/Hoechst dye based fluorescence assay; assay type: cell-based
Bos taurus [10] = organism: Bos taurus; assay: Inhibition of sodium channel in bovine chromaffin cells assessed as blockade of inward sodium currents by perforated patch clamp method; assay type: cell-based
[11] = biological target: T2, Mitochondrial sodium/calcium exchanger protein (Homo sapiens); assay: Inhibition of mitochondrial sodium/calcium exchanger in human HeLa cells assessed as reduction in clearance of histamine-induced mitochondrial calcium at 3 uM after 36 to 48 hrs by aequorin staining based bioluminescence assay; assay type: cell-based

| SMILES | viability at 10 µM [1] | viability at 3 µM (SH-SY5Y [2]) | viability at 10 µM (Hippocampus) | viability at 0.3 µM (SH-SY5Y [3]) | also measured |
| --- | --- | --- | --- | --- | --- |
| O=C1CSC(c2ccccc2Cl)c2cc(Cl)cnc2N1 (stereo not given) | 22% | 33% | 27% | 11% | – |
| O=C1CSC(c2ccccc2Cl)c2cc(Cl)ccc2N1 (stereo not given) | 76% | 36% | 37% | 18% | IC50 [4]: 1.6 µM; inhibition [5]: Active; inhibition (Bos taurus [6]; dose or concentration not given here): 37% |
| CC12CC3CC(C)(C1)CC(N)(C3)C2 [MEMANTINE] | – | – | 43% | – | – |
| COc1ccc2[nH]cc(CCNC(C)=O)c2c1 [MELATONIN] | – | – | – | 27% | – |
| CCOc1ccccc1C1SCC(=O)Nc2ncc(Cl)cc21 (stereo not given) | 17% | 28% | 11% | 26% | – |
| COc1ccccc1C1SCC(=O)Nc2ncc(Cl)cc21 (stereo not given) | 27% | 17% | 13% | 19% | – |
| Cc1ccccc1C1SCC(=O)Nc2ncc(Cl)cc21 (stereo not given) | 14% | 20% | 27% | 21% | – |
| CC(C)c1ccccc1C1SCC(=O)Nc2ncc(Cl)cc21 (stereo not given) | 49% | 28% | 33% | 19% | – |
| O=C1CSC(c2ccc(F)cc2)c2cc(Cl)cnc2N1 (stereo not given) | 22% | 27% | 20% | 24% | inhibition [7]: Active; inhibition [8]: Active; inhibition [5]: Active; Activity (HeLa): Non-toxic; Activity (SH-SY5Y [9]): Non-toxic; inhibition (Bos taurus [6]): inactive; inhibition (Bos taurus [10]): inactive |
| O=C1CSC(c2ccccc2Br)c2cc(Cl)cnc2N1 (stereo not given) | 23% | 30% | 28% | 21% | inhibition [5]: Active; inhibition [11]: inactive |
| O=C1CSC(c2ccccc2)c2cc(Cl)cnc2N1 (stereo not given) | 6% | 21% | 33% | 30% | inhibition [5]: Active |
| O=C1CSC(c2ccccc2C(F)(F)F)c2cc(Cl)cnc2N1 (stereo not given) | 17% | 19% | 42% | 18% | – |
| COC(=O)C1=C(C)NC(C)=C(C(=O)OC)C1c1ccccc1[N+](=O)[O-] [NIFEDIPINE] | – | 24% | – | – | – |
| COc1ccc(C2SCC(=O)Nc3ncc(Cl)cc32)cc1 (stereo not given) | 27% | 10% | 34% | 23% | – |
